Results from patent publication US20150245613A1 (priority 2012, published 2015).
Where two headings read alike, the source gives them in different places.

How the values were obtained:
[1] = system: wheat Fusarium head blight; type: in vivo, Fusarium graminearum; settings: cut wheat ears, 5 days after inoculation
[2] = system: wheat Fusarium head blight; type: in vivo, Fusarium graminearum; settings: cut wheat ears, 5 days after inoculation; remark: listed apart in the source
wheat brown rust = assay: Test Example 5: controlling effect on wheat brown rust, field test (cultivar NORIN No. 61), Colby; type: in vivo, Puccinia recondita; settings: 20 days after spray
Source text: A (theoretical) preventive value obtained in a case where the chemical suspension is sprayed=A1+((100−A1)×A2)/100
where A1 and A2 represent (i) the preventive value obtained in a case where the compound I-1 is sprayed and (ii) the preventive value obtained in a case where fluxapyroxad is sprayed.
Wheat seeds (cultivar: NORIN No. 61) were sown in a field in autumn of one (1) year earlier than a year when chemicals were sprayed, and the chemicals were sprayed over wheat plants at the flowering stage of the wheat plants. […] Specifically, the wheat seeds were sown in two rows with 30 cm inter-row spacing in the field in the autumn. (i) Chemical suspensions each of which contained the compound I-1 and Fluxapyroxad, (ii) a chemical suspension containing the compound I-1 and (iii) chemical suspensions each of which contained Fluxapyroxad, were diluted with water so that each ingredient of the chemical suspensions was in a predetermined amount to be used. Each of the chemical suspensions was then sprayed over the wheat plants at the flowering stage in the year. After the spray of the chemical suspensions, a pot, in which diseased wheat plants with brown rust were planted, was put in each test plot between the two rows of the wheat plants so that the wheat plants were prompted to get infected with wheat brown rust. Each test was conducted in three test plots, each of which test plots is of 0.5 m×4 m (2 m^2). In 20 days after the spray of the chemical suspensions, the occurrence of wheat brown rust was investigated in 20 flag leaves which were selected at random from one of the three test plots. An index of the occurrence (index of disease severity of wheat brown rust) was then calculated. A theoretical preventive value (an expected preventive value) obtained in a case where the chemical suspension containing the compound I-1 and Fluxapyroxad is sprayed was calculated, by use of the above Colby's formula (see Test Example 1), on the basis of (i) a preventive value obtained in a case where only the compound I-1 is sprayed and (ii) a preventive value obtained in a case where only fluxapyroxad is sprayed.

Work on Cn1cc(C(=O)Nc2ccccc2-c2cc(F)c(F)c(F)c2)c(C(F)F)n1 [Fluxapyroxad, 3-(difluoromethyl)-1-methyl-N-(3′,4′,5′-trifluorobiphenyl-2-yl)pyrazole-4-carboxamido] yielded an Actual preventive value ([1]; Compound I-1 0 g/ha, Fluxapyroxad 10 g/ha) of 3, an Actual preventive value ([1]; Compound I-1 0 g/ha, Fluxapyroxad 20 g/ha) of 0 and an Actual preventive value ([1]; Compound I-1 0 g/ha, Fluxapyroxad 40 g/ha) of 4. The Actual preventive value ([2]; Compound I-2 0 g/ha, Fluxapyroxad 10 g/ha) was 8, the Actual preventive value ([2]; Compound I-2 0 g/ha, Fluxapyroxad 20 g/ha) was 16 and the Actual preventive value ([2]; Compound I-2 0 g/ha, Fluxapyroxad 30 g/ha) was 14. The Actual preventive value ([2]; Compound I-2 0 g/ha, Fluxapyroxad 40 g/ha) was 9, the Actual preventive value (wheat brown rust; Compound I-1 0 g/ha, Fluxapyroxad 7.5 g/ha, from average disease occurrence area ratios of flag leaves) was 29.3 and the Actual preventive value (wheat brown rust; Compound I-1 0 g/ha, Fluxapyroxad 7.5 g/ha, from disease occurrence ratios of flag leaves) was 6.8. The Actual preventive value (wheat brown rust; Compound I-1 0 g/ha, Fluxapyroxad 30 g/ha, from average disease occurrence area ratios of flag leaves) was 80.6 and the Actual preventive value (wheat brown rust; Compound I-1 0 g/ha, Fluxapyroxad 30 g/ha, from disease occurrence ratios of flag leaves) was 64.4.

C[C@]1(CCl)CC[C@@H](Cc2ccc(F)cc2)[C@]1(O)Cn1cncn1 (racemic) [Compound I-2, (1RS,2SR,5SR)-2-chloromethyl-5-(4-fluorobenzyl)-2-methyl-1-(1H-1,2,4-triazole-1-ylmethy)cyclopentanol] was tested, and the Actual preventive value ([2]; Compound I-2 5 g/ha, Fluxapyroxad 0 g/ha) was 34, the Actual preventive value ([2]; Compound I-2 10 g/ha, Fluxapyroxad 0 g/ha) was 45 and the Actual preventive value ([2]; Compound I-2 15 g/ha, Fluxapyroxad 0 g/ha) was 62. The Actual preventive value ([2]; Compound I-2 20 g/ha, Fluxapyroxad 0 g/ha) was 78.

In the case of C[C@]1(CCl)CC[C@@H](Cc2ccc(Cl)cc2)[C@]1(O)Cn1cncn1 (racemic) [Compound I-1, (1RS,2SR,5SR)-5-(4-chlorobenzyl)-2-chloromethyl-2-methyl-1-(1H-1,2,4-triazole-1-ylmethyl)cyclopentanol], the Actual preventive value ([1]; Compound I-1 5 g/ha, Fluxapyroxad 0 g/ha) was 13, the Actual preventive value ([1]; Compound I-1 10 g/ha, Fluxapyroxad 0 g/ha) was 39 and the Actual preventive value ([1]; Compound I-1 20 g/ha, Fluxapyroxad 0 g/ha) was 61. For the same molecule, the Actual preventive value (wheat brown rust; Compound I-1 7.5 g/ha, Fluxapyroxad 0 g/ha, from average disease occurrence area ratios of flag leaves) was 42.6 and the Actual preventive value (wheat brown rust; Compound I-1 7.5 g/ha, Fluxapyroxad 0 g/ha, from disease occurrence ratios of flag leaves) was 16.4.
